Key:
[1] = system: GES-1-134 cell (GRIM-19-knockout human gastric mucosal epithelial cell GES-1); experiment: CCK-8 proliferation viability of GES-1-134 cell intervened with ferrostatin-1; type: cell-based; conditions: CCK-8, FIG. 8
Procedure: A CCK-8 kit (Solarbio) was used to analyze the proliferation viability changes of GES-1-NC and GES-1-134 cells, and a specific process was as follows: • (1) The cells were inoculated into a 96-well plate at 5,000 cells/well. • (2) The cells were cultivated at 37° C. and 5% CO2 for 24 h, 48 h, and 72 h. • (3) 10 μL of a CCK-8 solution was added to each well during detection. • (4) The plate was incubated in an incubator for 1 h. • (5) A microplate reader was used to determine the absorbance at 450 nm.
A CCK-8 kit was used to analyze a change of proliferation viability of the GES-1-134 cell intervened with the ferroptosis inhibitor ferrostatin-1. After the GES-1-134 cell was intervened with the ferroptosis inhibitor ferrostatin-1, the proliferation ability was increased and the viability was recovered.

[2] = system: ferroptosis marker proteins (COX2, GPX4, FTH1, and TFR) in the GES-1-134 cell; experiment: WB of ferroptosis marker proteins in GES-1-134 cell treated with ferrostatin-1; type: cell-based, Human; conditions: ferrostatin-1 0, 5, 10 μM, FIG. 9A
Procedure: (§1) 4. The expression of GRIM-19 was analyzed by WB, and a specific process was as follows: • (1) The cells were subjected to lysis with an RIPA lysis buffer (Beyotime) on ice for 30 min or more. • (2) A resulting lysate was centrifuged at 12,000 rpm for 10 min, and a resulting supernatant was collected. • (3) A corresponding volume of a sodium dodecyl sulfate-polyacrylamide gel electrophoresis (SDS-PAGE) protein loading buffer was added, and a resulting mixture was incubated in a metal bath at 100° C. for 10 min. • (4) SDS-PAGE was conducted. • (5) Blocking was conducted at room temperature for 30 min. • (6) A primary antibody was added, and a resulting mixture was incubated overnight at 4° C. on a shaker. • (7) A membrane was washed with TBST three times for 10 min each time. • (8) A secondary antibody was added, and a resulting mixture was incubated for 1 h at room temperature on a shaker. • (9) A membrane was washed with TBST three times for 10 min each time. • (10) Development was conducted.
(§2) WB was used to analyze the expression of ferroptosis markers in the GES-1-134 cell and the GRIM-19^−/− mouse gastric mucosal tissue that each were intervened with ferrostatin-1.

[3] = system: ferroptosis marker proteins (COX2, GPX4, FTH1, and TFR) in the GRIM-19−/− mouse gastric mucosal tissue; experiment: WB of ferroptosis marker proteins in GRIM-19−/− mouse gastric mucosal tissue intervened with ferrostatin-1; type: in vivo; conditions: ferrostatin-1 injected, FIG. 9B
Procedure: as §1, §2

[4] = system: inflammatory factors IL-6, TNF-α, VEGF, GM-CSF, IL-1β, and IL-33 in the GES-1-134 cell; experiment: WB of inflammatory factors in GES-1-134 cell intervened with ferrostatin-1; type: cell-based, Human; conditions: GES-1-134 cell in vitro, FIG. 10A
Procedure: as §1
(§3) WB was used to detect the expression of inflammatory factors in the GES-1-134 cell and GRIM-19^−/− mouse after being intervened with the ferroptosis inhibitor ferrostatin-1.

[5] = system: inflammatory factors in the GRIM-19−/− mouse gastric mucosal tissue; experiment: WB of inflammatory factors in GRIM-19−/− mouse gastric mucosal tissue intervened with ferrostatin-1; type: in vivo
Procedure: as §1, §3

[6] = system: SPEM marker proteins TFF2, Mist1, Clusterin-1, HE4, and MUC6 in the GRIM-19−/− mouse gastric mucosal tissue; experiment: WB of SPEM markers in GRIM-19−/− mouse gastric mucosal tissue intervened with ferrostatin-1; type: in vivo; conditions: intraperitoneally injected, compared with the PBS injection control, FIG. 11A
Procedure: as §1
WB was used to detect the expression of SPEM markers in the gastric mucosal tissue of the GRIM-19^−/− mouse intraperitoneally injected with the ferroptosis inhibitor ferrostatin-1.

[7] = system: GIF, GSII, and Mist1 positive cells in GRIM-19−/− mouse gastric mucosal tissue; experiment: GIF/GSII/Mist1 immunofluorescence colocalization analysis of SPEM markers in GRIM-19−/− mouse gastric mucosal tissue; type: in vivo; conditions: intraperitoneally injected, compared with the PBS group, FIG. 11B
Procedure: After a mouse was intraperitoneally injected with the ferroptosis inhibitor ferrostatin-1, an immunofluorescence technique was used to analyze the GIF, GSII, and Mist1 positive colocalization expression of SPEM markers in a gastric mucosal tissue, and a specific process was as follows: • (1) embedding a tissue with OCT; • (2) sectioning; • (3) fixing with 4% PFA; • (4) blocking with serum; • (5) incubating with a primary antibody overnight at 4° C.; • (6) rinsing with PBS 3 times; • (7) incubating with a secondary antibody at room temperature for 2 h; • (8) rinsing with PBS 3 times; • (9) counter-staining with DAPI for 10 min; • (10) rinsing with PBS 3 times; and • (11) mounting with an anti-fluorescence attenuation agent.

[8] = compared with the PBS injection control, WB, FIG. 10B

## CCOC(=O)c1ccc(NC2CCCCC2)c(N)c1 [ferrostatin-1]
[1]
  proliferation ability: increased
  viability: recovered
[2]
  expression level of COX-2: decreased
  expression level of FTH1: increased
  expression level of GPX4: increased
  expression level of TFR: decreased
[3]
  expression level of COX-2: showed the same change trend
  expression level of FTH1: showed the same change trend
  expression level of GPX4: showed the same change trend
  expression level of TFR: showed the same change trend
[4]
  expression level of GM-CSF: significantly reduced
  expression level of IL-1β: significantly reduced
  expression level of IL-6: significantly reduced
  expression level of IL-33: significantly reduced
  expression level of TNF-α: significantly reduced
  expression level of VEGF: significantly reduced
[5]; [8]
  expression level of IL-6: significantly reduced
  expression level of TNF-α: significantly reduced
[5]; in vivo injection
  expression of GM-CSF: effectively reduce
  expression of IL-1β: effectively reduce
  expression of IL-33: effectively reduce
  expression of VEGF: effectively reduce
[6]
  expression of Clusterin-1: significantly weakened
  expression of HE4: significantly weakened
  expression of MUC6: significantly weakened
  expression of Mist1: significantly weakened
  expression of TFF2: significantly weakened
[7]
  number of GIF+/GSII+ double-positive cells: decreased
  number of GIF+/GSII+/Mist1+ triple-positive cells: decreased
  number of GIF+/Mist1+ double-positive cells: decreased
  number of positive cells (GIF+, GSII+, Mist1+): decreased significantly

From US20240423945A1, “USE OF FERROPTOSIS INHIBITOR IN PREPARATION OF DRUG FOR TREATING GASTRITIS” (CHILDREN'S HOSPITAL OF CHONGQING MEDICAL UNIVERSITY, priority 2022, published 2024)
